This passage reports IC50 results from patent US20180201614A1, “BICYCLIC COMPOUNDS” (KALYRA PHARMACEUTICALS, INC., priority 2015, published 2018).

Bounds are passed on as bounds.

The test system of experiment [1] is H1975 (L858R/T790M) cells. Put plainly: EGFR cell proliferation assay (CellTiter-Glo), H1975. Type of experiment: cell-based. Particulars: Homo sapiens, NCI-H1975, 3-5 days. The procedure: (§1) Cell Lines: A431 (WT), H1975 (L858R/T790M), PC9 (E746-A750 deletion): A431 cells were grown in DMEM (Invitrogen, Carlsbad, Calif.) supplemented with 10% FBS (HyClone, South Logan, Utah) and 1% Penicillin-Streptomycin (P/S, Lonza, Walkersville, Md.). H1975 cells were grown in RPMI 1640 (Invitrogen) supplemented with 10% FBS and 1% P/S. […] PC-9 cells were obtained from Japan. All cells were maintained and propagated as monolayer cultures at 37° C. in a humidified 5% CO2 incubator. All cells were cultured according to recommendations.
(§2) Cell proliferation was measured using the CellTiter-Glo® Luminescent Cell Viability Assay. The assay involved the addition of a single reagent (CellTiter-Glo® Reagent) directly to cells cultured in serum-supplemented medium. The assay used a one-step addition to induce cell lysis and generate a luminescent signal proportional to the amount of ATP present, which is directly proportional to the number of metabolically active cells present in culture.
(§3) Each compound evaluated was prepared as a DMSO stock solution (10 mM). Compounds were tested in duplicate on each plate, with an 11-point serial dilution curve (1:3 dilution). Compound treatment (50 μL) was added from the compound dilution plate to the cell plate. The highest compound concentration was 1 or 10 μM (final), with a 0.3% final DMSO (#D-5879, Sigma, St Louis, Mo.) concentration. Plates were then incubated at 37° C., 5% CO2. After 3-5 days of compound treatment, CellTiter-Glo® Reagent (#G7573, Promega, Madison, Wis.) was prepared in one of two ways. If thawing a frozen aliquot of CellTiter-Glo® Reagent, the aliquot was thawed and equilibrated to RT prior to use while keeping it protected from light. Alternatively, new bottles of CellTiter-Glo® Buffer and CellTiter-Glo® Substrate were thawed and equilibrated to RT prior to use. CellTiter-Glo® Buffer (100 mL) was transferred into the amber bottle containing CellTiter-Glo® Substrate to reconstitute the lyophilized enzyme/substrate mixture, forming the CellTiter-Glo® Reagent. The reconstituted reagent was mixed by gently inverting the contents to obtain a homogeneous solution, and went into solution easily in less than 1 min. Any unused reconstituted CellTiter-Glo® Reagent was immediately aliquoted and frozen at −20° C., and protected from light. Cell plates were equilibrated at RT for approximately 30 mins. An equi-volume amount of CellTiter-Glo® Reagent (100 μL) was added to each well. Plates were mixed for 2 mins on an orbital shaker to induce cell lysis, and then were allowed to incubate at RT for 10 mins to stabilize the luminescent signal. Luminescence was recorded using the PerkinElmer EnVision Excite Multilabel Reader used for endpoint reading for luminescence detection (Waltham, Mass.). Data was analyzed using a four-parameter fit in Microsoft Excel.

The target of a further experiment is IGF1R (Homo sapiens, UniProt P08069). Kind of experiment: Biochemical enzyme assay, IGF1R.
Another experiment has as its target T1, EGFR Del-19 (Homo sapiens, UniProt P00533).
T1 construct: as on the sister T790M/L858R enzyme
Put plainly: EGFR biochemical enzyme assay, Del-19.

A further experiment addresses EGFR Wt (Homo sapiens, UniProt P00533). Put plainly: EGFR biochemical enzyme assay, Wt.
A further experiment deals with T2, human EGFR (T790M/L858R) (Homo sapiens, UniProt P00533, L858R/T790M).
T2 construct: with amino acids 696-end containing the T790M and L858R mutations; GST (N); purchased Millipore
Kind of experiment: EGFR biochemical enzyme assay (HTRF KinEASE TK). Particulars: 30 μM ATP. The procedure:
The inhibitory activity of a compound against EGFR (T790M/L858R) were determined with CisBio HTRF (homogenous time-resolved fluorescence) KinEASE TK (#62TKOPEC). The enzyme reaction contained recombinant N-terminal GST-tagged human EGFR (T790M/L858R), which phosphorylates the HTRF tyrosine kinase biotinylated substrate.
The sequence of the substrate is proprietary to CisBio. Test compounds were serially diluted in 100% (v/v) DMSO before being acoustically dispensed from an Echo 555 (Labcyte) into black Corning 1536-well assay plates. Kinase activity assays were performed in a total reaction volume of 3 μL per well. A 1.5 μL enzyme reaction consisted of 1.6 nM EGFR ([…], L858R), 1 mM DTT, and 10 mM MgCl2. A 1.5 μL substrate mix consisted of 1 μM TK substrate, 30 μM ATP, 1 mM DTT, and 10 mM MgCl2. Following a 50 mins incubation, 3 μL of stop mix was added, which consisted of 250 nM Strep-XL665 and TK Ab-Cryptate diluted in kit detection buffer. The plates were incubated for 1 h before being read on Pherastar using standard HTRF settings. N-terminal GST-tagged recombinant human EGF receptor, with amino acids 696-end containing the T790M and L858R mutations, was obtained from Millipore.

For experiment [2], the system named is PC9 (E746-A750 deletion) cells. Put plainly: EGFR cell proliferation assay (CellTiter-Glo), PC9. Type of experiment: cell-based. Conditions: 3-5 days. How it is done: as §1, §2, §3
A general note: ATP-based viability assays read luminescence as a measure of living cells.

A further experiment has as its target INSR (Homo sapiens, UniProt P06213). Kind of experiment: Biochemical enzyme assay, INSR.
The target in the next experiment is EGFR L858R (Homo sapiens, UniProt P00533, L858R). Put plainly: EGFR biochemical enzyme assay, L858R.
A further experiment has as its system A431 (WT) cells. Put plainly: EGFR cell proliferation assay (CellTiter-Glo), A431. It is filed as cell-based. Conditions: Homo sapiens, A-431, 3-5 days. The procedure: as §1, §2, §3

T1 sequence (P00533 with tags, fused parts or gaps DEL746-750): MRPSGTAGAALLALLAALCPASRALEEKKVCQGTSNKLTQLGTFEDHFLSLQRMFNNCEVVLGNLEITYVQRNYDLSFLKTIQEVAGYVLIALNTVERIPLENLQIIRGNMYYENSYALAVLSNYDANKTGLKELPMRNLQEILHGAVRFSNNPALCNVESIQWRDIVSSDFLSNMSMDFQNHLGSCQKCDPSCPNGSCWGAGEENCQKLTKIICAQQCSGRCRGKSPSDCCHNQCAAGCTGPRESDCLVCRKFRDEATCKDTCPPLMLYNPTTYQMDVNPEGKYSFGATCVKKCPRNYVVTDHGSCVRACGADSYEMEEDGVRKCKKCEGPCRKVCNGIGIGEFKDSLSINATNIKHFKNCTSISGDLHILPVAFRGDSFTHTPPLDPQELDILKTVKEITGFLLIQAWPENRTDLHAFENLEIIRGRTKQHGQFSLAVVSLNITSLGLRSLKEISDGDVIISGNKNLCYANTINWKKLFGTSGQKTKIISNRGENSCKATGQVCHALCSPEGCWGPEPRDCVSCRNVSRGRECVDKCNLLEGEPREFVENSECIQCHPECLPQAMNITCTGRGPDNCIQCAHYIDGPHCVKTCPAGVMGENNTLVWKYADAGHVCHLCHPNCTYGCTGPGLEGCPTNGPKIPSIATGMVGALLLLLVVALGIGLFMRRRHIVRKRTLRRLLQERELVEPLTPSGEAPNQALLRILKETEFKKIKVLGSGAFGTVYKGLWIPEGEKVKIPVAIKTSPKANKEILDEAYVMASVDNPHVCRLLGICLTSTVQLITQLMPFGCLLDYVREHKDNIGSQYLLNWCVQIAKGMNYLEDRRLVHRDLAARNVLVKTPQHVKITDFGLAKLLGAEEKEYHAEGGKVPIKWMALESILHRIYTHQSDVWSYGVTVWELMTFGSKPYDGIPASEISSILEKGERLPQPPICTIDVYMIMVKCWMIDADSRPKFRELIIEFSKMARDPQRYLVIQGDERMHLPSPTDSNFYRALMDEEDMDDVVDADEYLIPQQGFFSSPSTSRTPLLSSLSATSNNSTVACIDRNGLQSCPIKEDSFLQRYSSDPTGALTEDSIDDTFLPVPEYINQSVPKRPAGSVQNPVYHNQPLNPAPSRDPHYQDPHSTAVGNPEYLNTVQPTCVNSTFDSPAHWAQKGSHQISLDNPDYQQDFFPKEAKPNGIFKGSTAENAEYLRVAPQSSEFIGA
Chain of INSR (P06213 28-1382, species assumed): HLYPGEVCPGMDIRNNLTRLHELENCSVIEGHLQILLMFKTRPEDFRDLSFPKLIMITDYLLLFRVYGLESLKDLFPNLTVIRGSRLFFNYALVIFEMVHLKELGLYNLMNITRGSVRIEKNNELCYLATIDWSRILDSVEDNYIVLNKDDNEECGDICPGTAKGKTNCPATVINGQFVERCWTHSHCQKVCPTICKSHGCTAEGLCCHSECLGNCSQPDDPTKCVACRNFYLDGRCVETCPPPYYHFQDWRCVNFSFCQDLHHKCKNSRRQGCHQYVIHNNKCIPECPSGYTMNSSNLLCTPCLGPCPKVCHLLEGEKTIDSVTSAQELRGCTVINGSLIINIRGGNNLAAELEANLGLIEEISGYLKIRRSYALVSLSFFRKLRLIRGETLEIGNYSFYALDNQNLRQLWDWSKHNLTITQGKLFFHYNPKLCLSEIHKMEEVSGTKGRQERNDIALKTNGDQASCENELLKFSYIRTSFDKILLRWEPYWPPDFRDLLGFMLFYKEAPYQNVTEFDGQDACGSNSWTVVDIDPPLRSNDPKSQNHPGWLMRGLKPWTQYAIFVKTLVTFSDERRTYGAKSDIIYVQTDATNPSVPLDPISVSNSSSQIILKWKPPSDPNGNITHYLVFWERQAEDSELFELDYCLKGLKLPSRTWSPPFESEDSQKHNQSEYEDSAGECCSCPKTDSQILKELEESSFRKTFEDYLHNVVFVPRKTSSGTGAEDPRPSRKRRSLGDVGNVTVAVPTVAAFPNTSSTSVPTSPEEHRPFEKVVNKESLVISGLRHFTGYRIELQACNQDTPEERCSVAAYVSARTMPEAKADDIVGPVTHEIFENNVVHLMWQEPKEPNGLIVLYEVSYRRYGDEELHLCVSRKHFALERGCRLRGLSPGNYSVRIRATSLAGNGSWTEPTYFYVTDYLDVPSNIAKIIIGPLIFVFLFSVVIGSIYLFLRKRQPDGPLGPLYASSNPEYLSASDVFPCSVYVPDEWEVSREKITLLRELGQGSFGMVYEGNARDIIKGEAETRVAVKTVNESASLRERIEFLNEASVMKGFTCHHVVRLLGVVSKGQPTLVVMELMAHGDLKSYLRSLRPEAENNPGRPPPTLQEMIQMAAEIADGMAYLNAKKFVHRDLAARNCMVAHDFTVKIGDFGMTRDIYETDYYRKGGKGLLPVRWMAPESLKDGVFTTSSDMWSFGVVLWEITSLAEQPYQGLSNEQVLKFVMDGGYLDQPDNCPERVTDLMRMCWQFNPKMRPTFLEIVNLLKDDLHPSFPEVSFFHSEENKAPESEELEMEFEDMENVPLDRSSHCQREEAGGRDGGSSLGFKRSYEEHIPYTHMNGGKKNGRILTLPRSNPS
Chain of EGFR Wt (P00533 25-1210): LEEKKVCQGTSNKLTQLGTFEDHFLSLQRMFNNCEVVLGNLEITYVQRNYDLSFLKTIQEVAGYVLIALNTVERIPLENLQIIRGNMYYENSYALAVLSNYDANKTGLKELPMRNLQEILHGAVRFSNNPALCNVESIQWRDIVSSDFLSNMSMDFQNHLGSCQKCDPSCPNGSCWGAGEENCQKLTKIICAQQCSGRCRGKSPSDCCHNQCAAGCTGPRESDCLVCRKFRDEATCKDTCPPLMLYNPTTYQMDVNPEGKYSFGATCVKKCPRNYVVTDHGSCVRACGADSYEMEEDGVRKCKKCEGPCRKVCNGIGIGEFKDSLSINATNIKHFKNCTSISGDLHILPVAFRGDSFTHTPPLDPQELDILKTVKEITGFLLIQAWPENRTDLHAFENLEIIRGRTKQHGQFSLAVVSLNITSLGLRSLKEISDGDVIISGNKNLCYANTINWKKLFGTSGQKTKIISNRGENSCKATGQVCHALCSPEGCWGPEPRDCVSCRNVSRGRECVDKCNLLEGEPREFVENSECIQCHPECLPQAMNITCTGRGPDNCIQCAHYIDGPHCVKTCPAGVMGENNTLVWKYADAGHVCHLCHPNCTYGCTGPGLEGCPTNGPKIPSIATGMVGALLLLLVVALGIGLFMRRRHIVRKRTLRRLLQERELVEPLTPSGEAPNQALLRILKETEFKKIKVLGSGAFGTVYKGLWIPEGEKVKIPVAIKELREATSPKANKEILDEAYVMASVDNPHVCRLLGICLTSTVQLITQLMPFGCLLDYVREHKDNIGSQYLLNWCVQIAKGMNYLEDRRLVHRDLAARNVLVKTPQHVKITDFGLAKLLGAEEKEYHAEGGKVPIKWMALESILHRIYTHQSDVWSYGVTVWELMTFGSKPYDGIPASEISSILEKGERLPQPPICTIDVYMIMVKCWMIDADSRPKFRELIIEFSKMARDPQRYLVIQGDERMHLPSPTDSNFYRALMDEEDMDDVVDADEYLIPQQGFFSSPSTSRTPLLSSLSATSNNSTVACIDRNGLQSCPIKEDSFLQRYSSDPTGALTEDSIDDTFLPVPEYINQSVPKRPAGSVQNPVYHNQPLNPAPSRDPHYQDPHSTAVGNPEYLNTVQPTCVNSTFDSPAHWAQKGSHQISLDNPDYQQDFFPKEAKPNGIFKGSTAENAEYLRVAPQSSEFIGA
T2 sequence (P00533 696-1210 T790M/L858R): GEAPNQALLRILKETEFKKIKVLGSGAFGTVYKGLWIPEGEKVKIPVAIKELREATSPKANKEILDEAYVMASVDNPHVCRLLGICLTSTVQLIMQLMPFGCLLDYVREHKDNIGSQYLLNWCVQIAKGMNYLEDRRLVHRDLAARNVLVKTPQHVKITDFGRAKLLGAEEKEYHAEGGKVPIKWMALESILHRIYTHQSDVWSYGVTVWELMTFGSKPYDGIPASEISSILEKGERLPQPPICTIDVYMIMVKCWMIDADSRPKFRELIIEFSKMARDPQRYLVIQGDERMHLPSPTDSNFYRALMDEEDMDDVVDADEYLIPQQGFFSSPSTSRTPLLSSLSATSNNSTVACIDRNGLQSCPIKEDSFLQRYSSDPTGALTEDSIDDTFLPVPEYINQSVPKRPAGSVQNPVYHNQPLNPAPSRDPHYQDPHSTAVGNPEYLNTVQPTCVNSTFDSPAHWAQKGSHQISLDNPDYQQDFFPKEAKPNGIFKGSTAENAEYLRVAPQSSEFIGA

As a reminder, the IC50 is the point on the concentration scale where inhibition reaches its midpoint. Low values mean inhibition by little substance, high ones a need for much substance. In the case of `C=CC(=O)N[C@@H]1CN(c2nc(Nc3cn(C)nc3OC)c3ncn(C45CC(C4)C5)c3n2)C[C@H]1F` (racemic) [Example 6, N-((3R,4R)-1-(9-(bicyclo[1.1.1]pentan-1-yl)-6-((3-methoxy-1-methyl-1H-pyrazol-4-yl)amino)-9H-purin-2-yl)-4-fluoropyrrolidin-3-yl)acrylamide], the IC50 was 50 to 300 nM in experiment [1]; not below 100 nM against IGF1R; not above 10 nM on EGFR Del-19; not above 10 nM against EGFR Wt; not above 10 nM at human EGFR (T790M/L858R); less than 50 nM in [2]. Moreover, the 50% inhibitory concentration (IC50) against INSR is not below 100 nM; at EGFR L858R, not above 10 nM; with A431 (WT) cells, not below 300 nM.
For the compound `C=CC(=O)N[C@@H]1CN(c2nc(Nc3cn(C)nc3OC)c3ncc(C)n3n2)C[C@H]1F` [Example 1, N-((3R,4R)-4-fluoro-1-(4-((3-methoxy-1-methyl-1H-pyrazol-4-yl)amino)-7-methylimidazo[2,1-f][1,2,4]triazin-2-yl)pyrrolidin-3-yl)acrylamide], the 50% inhibitory concentration (IC50) in experiment [1] is less than 50 nM; on IGF1R, not below 100 nM; on EGFR Del-19, not above 10 nM; against EGFR Wt, not above 10 nM; against human EGFR (T790M/L858R), not above 10 nM; in experiment [2], less than 50 nM. In addition, the results for the concentration for half-maximal inhibition (IC50) on INSR, against EGFR L858R and with A431 (WT) cells were not below 100 nM, not above 10 nM and not below 300 nM, respectively.
With `C=CC(=O)N[C@@H]1CN(c2nc(Nc3cn([C@H]4CCN(C)C4)nc3OC)c3ncc(C)n3n2)C[C@H]1F` [Example 2, N-((3R,4R)-4-fluoro-1-(4-((3-methoxy-1-((S)-1-methylpyrrolidin-3-yl)-1H-pyrazol-4-yl)amino)-7-methylimidazo[2,1-f][1,2,4]triazin-2-yl)pyrrolidin-3-yl)acrylamide], the half-inhibitory concentration (IC50) is less than 50 nM in experiment [1]; not below 100 nM against IGF1R; not above 10 nM on EGFR Del-19; not above 10 nM on EGFR Wt; not above 10 nM against human EGFR (T790M/L858R); less than 50 nM in experiment [2]. The results for the IC50 against INSR and with A431 (WT) cells were not below 100 nM and 50 to 300 nM, respectively.
As for `C=CC(=O)N[C@@H]1CN(c2nc(Nc3cn(C4CCN(C)CC4)nc3OC)c3ncc(C)n3n2)C[C@H]1F` [Example 4, N-((3R,4R)-4-fluoro-1-(4-((3-methoxy-1-(1-methylpiperidin-4-yl)-1H-pyrazol-4-yl)amino)-7-methylimidazo[2,1-f][1,2,4]triazin-2-yl)pyrrolidin-3-yl)acrylamide], the half-inhibitory concentration (IC50) in experiment [1] was less than 50 nM; against IGF1R, not below 100 nM; on EGFR Del-19, not above 10 nM; on EGFR Wt, not above 10 nM; on human EGFR (T790M/L858R), not above 10 nM; in experiment [2] it was less than 50 nM. Further, the figures for the IC50 against INSR and with A431 (WT) cells were not below 100 nM and 50 to 300 nM, respectively.
`C=CC(=O)N[C@@H]1CN(c2nc(Nc3cn(CCN(C)C)nc3OC)c3ncc(C)n3n2)C[C@H]1F` [Example 5, N-((3R,4R)-1-(4-((1-(2-(dimethylamino)ethyl)-3-methoxy-1H-pyrazol-4-yl)amino)-7-methylimidazo[2,1-f][1,2,4]triazin-2-yl)-4-fluoropyrrolidin-3-yl)acrylamide]: the 50% inhibitory concentration (IC50) is less than 50 nM in experiment [1]; not below 100 nM on IGF1R; not above 10 nM on EGFR Del-19; not above 10 nM against EGFR Wt; not above 10 nM on human EGFR (T790M/L858R); less than 50 nM in experiment [2]. Also, the results for the IC50 on INSR and in the experiment on A431 (WT) cells were not below 100 nM and 50 to 300 nM, respectively.
